Source: PubChem BioAssay AID330 (DTP/NCI, 2004)
Where “and” joins values, the source holds several entries; their conditions need not be identical. Identical values can stand only once. Inconclusive results and toxic doses are left out.

System: P388 leukemia ip, CD2F1 mice, survival T/C
Assay: NCI In Vivo Anticancer Drug Screen. Data for tumor model P388 Leukemia (intraperitoneal) in CD2F1 (CDF1) mice
Settings: endpoint: median survival time, higher = longer survival
Procedure, shortened: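 Mice carrying the transplanted tumor received test compound or vehicle. Survival was recorded in each group, and the value is the treated-group measurement divided by that of the vehicle-treated control group.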

[1] = dose: 50.0 mg/kg/injection, schedule: Q01DX009 (ip), vehicle: Klucel (hydroxypropylcellulose) (HPC)
[2] = dose: 100.0 mg/kg/injection, schedule: Q01DX009 (ip), vehicle: Klucel (hydroxypropylcellulose) (HPC)

## COc1ccc2[nH]c3c(C)c4cc[n+](C)c(C)c4cc3c2c1
dose: 1.56 mg/kg/injection, schedule: Q04DX002 (ip), vehicle: water
  T/C: 97 % of control
dose: 3.12 mg/kg/injection, schedule: Q04DX002 (ip), vehicle: water
  T/C: 104 % of control
dose: 6.25 mg/kg/injection, schedule: Q04DX002 (ip), vehicle: water
  T/C: 107 % of control
dose: 10.0 mg/kg/injection, schedule: Q04DX002 (ip), vehicle: water
  T/C: 200 % of control
dose: 12.5 mg/kg/injection, schedule: Q04DX002 (ip), vehicle: water
  T/C: 113 % of control
dose: 20.0 mg/kg/injection, schedule: Q04DX002 (ip), vehicle: water
  T/C: 115 % of control
dose: 25.0 mg/kg/injection, schedule: Q04DX002 (ip), vehicle: water
  T/C: 117 % of control
dose: 40.0 mg/kg/injection, schedule: Q04DX002 (ip), vehicle: water
  T/C: 112 % of control
dose: 50.0 mg/kg/injection, schedule: Q04DX002 (ip), vehicle: water
  T/C: 123 % of control

## Nc1ccccc1N=C(CC(=O)c1ccco1)C(F)(F)F
dose: 6.25 mg/kg/injection, schedule: Q01DX009 (ip), vehicle: saline
  T/C: 99 % of control
dose: 25.0 mg/kg/injection, schedule: Q01DX009 (ip), vehicle: saline
  T/C: 91 % of control
dose: 100.0 mg/kg/injection, schedule: Q01DX009 (ip), vehicle: saline
  T/C: 88 % of control
dose: 200.0 mg/kg/injection, schedule: Q01DX009 (ip), vehicle: saline
  T/C: 105 % of control

## CC(=O)Nc1ccc(C(=O)CCl)c(Cl)c1
dose: 12.5 mg/kg/injection, schedule: Q01DX009 (ip), vehicle: Klucel (hydroxypropylcellulose) (HPC)
  T/C: 104 % of control
dose: 25.0 mg/kg/injection, schedule: Q01DX009 (ip), vehicle: Klucel (hydroxypropylcellulose) (HPC)
  T/C: 107 % of control

## C=C1C(=O)OC2/C=C(\C)CC/C=C(/C(=O)OC)C(OC(C)=O)C(OC(=O)C(C)(O)C(C)O)C12 (stereo not drawn)
dose: 3.0 mg/kg/injection, schedule: Q01DX009 (ip), vehicle: Klucel (hydroxypropylcellulose) (HPC)
  T/C: 116 % of control
dose: 12.0 mg/kg/injection, schedule: Q01DX009 (ip), vehicle: Klucel (hydroxypropylcellulose) (HPC)
  T/C: 122 % of control
dose: 24.0 mg/kg/injection, schedule: Q01DX009 (ip), vehicle: Klucel (hydroxypropylcellulose) (HPC)
  T/C: 120 % of control

## CNC(=O)OCc1c(COC(=O)NC)c(C(F)(F)F)n2c1CCC2
[1]
  T/C: 117 % of control
[2]
  T/C: 116 % of control

## Cc1ccc(C2(C(=O)C=[N+]=[N-])OC2(C)C)cc1 (stereo not drawn)
dose: 25.0 mg/kg/injection, schedule: Q01DX005 (ip), vehicle: saline with Tween-80
  T/C: 99 % of control
dose: 50.0 mg/kg/injection, schedule: Q01DX005 (ip), vehicle: saline with Tween-80
  T/C: 99 % of control
dose: 100.0 mg/kg/injection, schedule: Q01DX005 (ip), vehicle: saline with Tween-80
  T/C: 115 % of control
dose: 200.0 mg/kg/injection, schedule: Q01DX005 (ip), vehicle: saline with Tween-80
  T/C: 108 % of control

## COC(C(N)=O)(c1ccccc1)C(F)(F)F (stereo not drawn)
dose: 100.0 mg/kg/injection, schedule: Q01DX009 (ip), vehicle: saline with Tween-80
  T/C: 90 % of control
dose: 200.0 mg/kg/injection, schedule: Q01DX009 (ip), vehicle: saline with Tween-80
  T/C: 100 % of control
dose: 400.0 mg/kg/injection, schedule: Q01DX009 (ip), vehicle: saline with Tween-80
  T/C: 90 % of control

## O=C(Nc1ncnc2nc[nH]c12)c1ccccc1
[1]
  T/C: 107 % of control
[2]
  T/C: 97 % of control
dose: 200.0 mg/kg/injection, schedule: Q01DX009 (ip), vehicle: Klucel (hydroxypropylcellulose) (HPC)
  T/C: 101 % of control
dose: 400.0 mg/kg/injection, schedule: Q01DX009 (ip), vehicle: Klucel (hydroxypropylcellulose) (HPC)
  T/C: 112 % of control

## CC(=O)Oc1c[nH]c(=O)[nH]c1=O
dose: 25.0 mg/kg/injection, schedule: Q01DX009 (ip), vehicle: distilled water + Tween-80
  T/C: 103 % of control and 97 % of control
dose: 50.0 mg/kg/injection, schedule: Q01DX009 (ip), vehicle: distilled water + Tween-80
  T/C: 100 % of control and 97 % of control
dose: 100.0 mg/kg/injection, schedule: Q01DX009 (ip), vehicle: distilled water + Tween-80
  T/C: 102 % of control and 103 % of control and 112 % of control
dose: 200.0 mg/kg/injection, schedule: Q01DX009 (ip), vehicle: distilled water + Tween-80
  T/C: 109 % of control and 114 % of control and 119 % of control
dose: 400.0 mg/kg/injection, schedule: Q01DX009 (ip), vehicle: distilled water + Tween-80
  T/C: 103 % of control and 123 % of control

## CCCCCCCCCCNCCS
dose: 5.0 mg/kg/injection, schedule: Q01DX009 (ip), vehicle: saline
  T/C: 91 % of control
dose: 10.0 mg/kg/injection, schedule: Q01DX009 (ip), vehicle: saline
  T/C: 91 % of control
dose: 20.0 mg/kg/injection, schedule: Q01DX009 (ip), vehicle: saline
  T/C: 95 % of control

## NC(=S)NN=C1/C(=N\O)CCC/C1=N/O
dose: 60.0 mg/kg/injection, schedule: Q01DX005 (ip), vehicle: saline with Tween-80
  T/C: 97 % of control
dose: 120.0 mg/kg/injection, schedule: Q01DX005 (ip), vehicle: saline with Tween-80
  T/C: 97 % of control
dose: 240.0 mg/kg/injection, schedule: Q01DX005 (ip), vehicle: saline with Tween-80
  T/C: 97 % of control

## O=C(NC(Cc1ccccc1)C(=O)O)c1ccc([N+](=O)[O-])cc1 (stereo not drawn)
dose: 25.0 mg/kg/injection, schedule: Q01DX009 (ip), vehicle: other
  T/C: 97 % of control
dose: 50.0 mg/kg/injection, schedule: Q01DX009 (ip), vehicle: other
  T/C: 89 % of control
dose: 100.0 mg/kg/injection, schedule: Q01DX009 (ip), vehicle: other
  T/C: 104 % of control

## COC1=CC(=O)C(C/C=C/c2ccccc2)=CC1=O
dose: 2.5 mg/kg/injection, schedule: Q01DX009 (ip), vehicle: saline with Tween-80
  T/C: 103 % of control
dose: 5.0 mg/kg/injection, schedule: Q01DX009 (ip), vehicle: saline with Tween-80
  T/C: 105 % of control
dose: 10.0 mg/kg/injection, schedule: Q01DX009 (ip), vehicle: saline with Tween-80
  T/C: 105 % of control
